Test results: PubChem BioAssay AID2060621 (Molecular Pharmacology Branch, DTP, NCI, 2025)

Tested on: 324938-238-R-J1-PDC complex spheroids viability
Experiment: Anticancer human tumor 324938-238-R-J1-PDC patient-derived bladder carcinoma cell line growth inhibition [CLK]
Conditions: for IC50: curve of first compound; for viability, T/C: stronger effect = lower value
Outline: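 Multi-cell-type spheroids combined patient-derived tumor cells with HUVEC endothelial cells and human mesenchymal stem cells. Paired agents were dosed in half-log steps down from about clinical Cmax, or from 10 microM where Cmax was unknown.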

[1] = second compound 0.0316 µM, first compound 0.0316 µM
[2] = second compound 0.0316 µM, first compound 0.1 µM
[3] = second compound 0.0316 µM, first compound 0.316 µM
[4] = second compound 0.0316 µM, first compound 1 µM
[5] = second compound 0.0316 µM, first compound 3.16 µM
[6] = second compound 0.0316 µM, first compound 10 µM
[7] = second compound 0.1 µM, first compound 0.0316 µM
[8] = second compound 0.1 µM, first compound 0.1 µM
[9] = second compound 0.1 µM, first compound 0.316 µM
[10] = second compound 0.1 µM, first compound 1 µM
[11] = second compound 0.1 µM, first compound 3.16 µM
[12] = second compound 0.1 µM, first compound 10 µM
[13] = second compound 0.316 µM, first compound 0.0316 µM
[14] = second compound 0.316 µM, first compound 0.1 µM
[15] = second compound 0.316 µM, first compound 0.316 µM
[16] = second compound 0.316 µM, first compound 1 µM
[17] = second compound 0.316 µM, first compound 3.16 µM
[18] = second compound 0.316 µM, first compound 10 µM
[19] = second compound 1 µM, first compound 0.0316 µM
[20] = second compound 1 µM, first compound 0.1 µM
[21] = second compound 1 µM, first compound 0.316 µM
[22] = second compound 1 µM, first compound 1 µM
[23] = second compound 1 µM, first compound 3.16 µM
[24] = second compound 1 µM, first compound 10 µM
[25] = second compound 3.16 µM, first compound 0.0316 µM
[26] = second compound 3.16 µM, first compound 0.1 µM
[27] = second compound 3.16 µM, first compound 0.316 µM
[28] = second compound 3.16 µM, first compound 1 µM
[29] = second compound 3.16 µM, first compound 3.16 µM
[30] = second compound 3.16 µM, first compound 10 µM
[31] = second compound 10 µM, first compound 0.0316 µM
[32] = second compound 10 µM, first compound 0.1 µM
[33] = second compound 10 µM, first compound 0.316 µM
[34] = second compound 10 µM, first compound 1 µM
[35] = second compound 10 µM, first compound 3.16 µM
[36] = second compound 10 µM, first compound 10 µM
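Note: viability read after seven days of drug exposure.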
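Throughout, for viability, T/C: 100% = DMSO vehicle control wells.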

C=C(F)C(=O)N1CCN(c2nc(OCC3CCCN3C)nc3c2CCN(c2cccc4cccc(Cl)c24)C3)CC1CC#N (stereo not drawn) + CNC(=O)c1ccc(Nc2nc(OC3CCCC3)c3c(-c4ccc5nc(C)oc5c4)c[nH]c3n2)c(OC)c1 gave an IC50 (second compound 0.0316 µM) of 2360 nM, an IC50 (second compound 0.1 µM) of under 31.6 nM and an IC50 (second compound 0.316 µM) of under 31.6 nM. It also gave an IC50 (second compound 1 µM) of under 31.6 nM, an IC50 (second compound 3.16 µM) of under 31.6 nM and an IC50 (second compound 10 µM) of under 31.6 nM. For the same compound, the viability, T/C [1] was 89%, the viability, T/C [2] was 82.6% and the viability, T/C [3] was 83.2%. The viability, T/C [4] was 75.7%, the viability, T/C [5] was 41.3% and the viability, T/C [6] was 0.18%. The viability, T/C [7] was 23.1%, the viability, T/C [8] was 24.9% and the viability, T/C [9] was 25.2%. It also gave a viability, T/C [10] of 23.1%, a viability, T/C [11] of 24.9% and a viability, T/C [12] of 0.17%. It also gave a viability, T/C [13] of 16.2%, a viability, T/C [14] of 16.2% and a viability, T/C [15] of 17.7%. The viability, T/C [16] was 20.2%, the viability, T/C [17] was 16.7% and the viability, T/C [18] was 0.14%. It also gave a viability, T/C [19] of 18%, a viability, T/C [20] of 17% and a viability, T/C [21] of 15.3%. It also gave a viability, T/C [22] of 17.6%, a viability, T/C [23] of 16.4% and a viability, T/C [24] of 0.16%. The viability, T/C [25] was 17.5%, the viability, T/C [26] was 15.3% and the viability, T/C [27] was 14.6%. It also gave a viability, T/C [28] of 16.4%, a viability, T/C [29] of 14.5% and a viability, T/C [30] of 0.17%. The viability, T/C [31] was 16.7%, the viability, T/C [32] was 16.8% and the viability, T/C [33] was 15.5%. It also gave a viability, T/C [34] of 18.6%, a viability, T/C [35] of 14.3% and a viability, T/C [36] of 0.3%.
In the case of C=CC(=O)N1CCN(c2nc(=O)n(-c3c(C)ccnc3C(C)C)c3nc(-c4c(O)cccc4F)c(F)cc23)C(C)C1 (stereo not drawn) + CNC(=O)c1ccc(Nc2nc(OC3CCCC3)c3c(-c4ccc5nc(C)oc5c4)c[nH]c3n2)c(OC)c1, the IC50 (second compound 0.0316 µM) is reported as over 10000 nM, the IC50 (second compound 0.1 µM) is reported as under 31.6 nM and the IC50 (second compound 0.316 µM) is reported as under 31.6 nM. The IC50 (second compound 1 µM) was under 31.6 nM, the IC50 (second compound 3.16 µM) was under 31.6 nM and the IC50 (second compound 10 µM) was under 31.6 nM. It also gave a viability, T/C [1] of 92.7%, a viability, T/C [2] of 95.3% and a viability, T/C [3] of 96.2%. It also gave a viability, T/C [4] of 102%, a viability, T/C [5] of 88.8% and a viability, T/C [6] of 81.4%. The viability, T/C [7] was 32.6%, the viability, T/C [8] was 30.8% and the viability, T/C [9] was 27.9%. For the same compound, the viability, T/C [10] was 35.1%, the viability, T/C [11] was 33.5% and the viability, T/C [12] was 31.6%. It also gave a viability, T/C [13] of 20.4%, a viability, T/C [14] of 17.4% and a viability, T/C [15] of 20.7%. For the same compound, the viability, T/C [16] was 20.4%, the viability, T/C [17] was 23.9% and the viability, T/C [18] was 27.4%. The viability, T/C [19] was 15.3%, the viability, T/C [20] was 16.1% and the viability, T/C [21] was 16.5%. For the same compound, the viability, T/C [22] was 19.3%, the viability, T/C [23] was 20.5% and the viability, T/C [24] was 21.5%. It also gave a viability, T/C [25] of 18.3%, a viability, T/C [26] of 18.4% and a viability, T/C [27] of 20.4%. It also gave a viability, T/C [28] of 18.8%, a viability, T/C [29] of 23.7% and a viability, T/C [30] of 25.5%. It also gave a viability, T/C [31] of 19.4%, a viability, T/C [32] of 15.6% and a viability, T/C [33] of 18.5%. For the same compound, the viability, T/C [34] was 21%, the viability, T/C [35] was 25.5% and the viability, T/C [36] was 25.7%.
With CCCS(=O)(=O)Nc1ccc(F)c(C(=O)c2c[nH]c3ncc(-c4ccc(Cl)cc4)cc23)c1F + CNC(=O)c1ccc(Nc2nc(OC3CCCC3)c3c(-c4ccc5nc(C)oc5c4)c[nH]c3n2)c(OC)c1 the IC50 (second compound 0.0316 µM) was 8550 nM, the IC50 (second compound 0.1 µM) was under 31.6 nM and the IC50 (second compound 0.316 µM) was under 31.6 nM. It also gave an IC50 (second compound 1 µM) of under 31.6 nM, an IC50 (second compound 3.16 µM) of under 31.6 nM and an IC50 (second compound 10 µM) of under 31.6 nM. It also gave a viability, T/C [1] of 89.8%, a viability, T/C [2] of 89.2% and a viability, T/C [3] of 92.1%. It also gave a viability, T/C [4] of 103%, a viability, T/C [5] of 98.6% and a viability, T/C [6] of 43%. For the same compound, the viability, T/C [7] was 31.2%, the viability, T/C [8] was 32.5% and the viability, T/C [9] was 29.6%. For the same compound, the viability, T/C [10] was 29.1%, the viability, T/C [11] was 35.8% and the viability, T/C [12] was 33.8%. It also gave a viability, T/C [13] of 19.8%, a viability, T/C [14] of 18% and a viability, T/C [15] of 20.9%. The viability, T/C [16] was 19.3%, the viability, T/C [17] was 24.4% and the viability, T/C [18] was 26.1%. For the same compound, the viability, T/C [19] was 25.1%, the viability, T/C [20] was 15.8% and the viability, T/C [21] was 18.2%. For the same compound, the viability, T/C [22] was 22%, the viability, T/C [23] was 19.2% and the viability, T/C [24] was 18.1%. For the same compound, the viability, T/C [25] was 15.2%, the viability, T/C [26] was 15.8% and the viability, T/C [27] was 19.3%. The viability, T/C [28] was 19.1%, the viability, T/C [29] was 22.4% and the viability, T/C [30] was 15.5%. For the same compound, the viability, T/C [31] was 17.5%, the viability, T/C [32] was 18.8% and the viability, T/C [33] was 17.4%. For the same compound, the viability, T/C [34] was 18.3%, the viability, T/C [35] was 23.9% and the viability, T/C [36] was 17.2%.
With COC1C=CCC(C)C(C)S(=O)(=O)NC(=O)c2ccc3c(c2)N(CC2CCC21)CC1(CCCc2cc(Cl)ccc21)CO3 (stereo not drawn) + CNC(=O)c1ccc(Nc2nc(OC3CCCC3)c3c(-c4ccc5nc(C)oc5c4)c[nH]c3n2)c(OC)c1 the IC50 (second compound 0.0316 µM) was 210 nM, the IC50 (second compound 0.1 µM) was under 31.6 nM and the IC50 (second compound 0.316 µM) was under 31.6 nM. The IC50 (second compound 1 µM) was under 31.6 nM, the IC50 (second compound 3.16 µM) was under 31.6 nM and the IC50 (second compound 10 µM) was under 31.6 nM. The viability, T/C [1] was 89.6%, the viability, T/C [2] was 79.6% and the viability, T/C [3] was 32.8%. It also gave a viability, T/C [4] of 21.8%, a viability, T/C [5] of 15.3% and a viability, T/C [6] of 7.03%. The viability, T/C [7] was 31.7%, the viability, T/C [8] was 27.9% and the viability, T/C [9] was 24.4%. For the same compound, the viability, T/C [10] was 15.4%, the viability, T/C [11] was 22.5% and the viability, T/C [12] was 8.36%. For the same compound, the viability, T/C [13] was 18%, the viability, T/C [14] was 15.1% and the viability, T/C [15] was 12.9%. For the same compound, the viability, T/C [16] was 12.1%, the viability, T/C [17] was 10.7% and the viability, T/C [18] was 7.76%. For the same compound, the viability, T/C [19] was 15.1%, the viability, T/C [20] was 13.3% and the viability, T/C [21] was 11.8%. For the same compound, the viability, T/C [22] was 11.2%, the viability, T/C [23] was 11.3% and the viability, T/C [24] was 7.89%. For the same compound, the viability, T/C [25] was 16.1%, the viability, T/C [26] was 13.2% and the viability, T/C [27] was 13.1%. For the same compound, the viability, T/C [28] was 10.6%, the viability, T/C [29] was 11.4% and the viability, T/C [30] was 8.28%. For the same compound, the viability, T/C [31] was 14.7%, the viability, T/C [32] was 15% and the viability, T/C [33] was 15%. For the same compound, the viability, T/C [34] was 10.7%, the viability, T/C [35] was 11.6% and the viability, T/C [36] was 9.83%.
